Laboratory results from paper PMC11845477, “Exploring the principles behind antibiotics with limited resistance” (Nature Communications, 2025).
Where two headings read alike, the source gives them in different places. Where a SMILES comes first, the peptide text is derived from it. Bridges are numbered along the chain shown (N, C = ends). [ ]: non-standard residue; d: D form. The star is where a group is joined. X1 = NC[C@@H](CC(=O)*)c1cccc(Cl)c1; X2 = CC[C@H](C)CCCCC(=O)*; Dab = NCC[C@H](N)C(=O)O; Dap = NC[C@H](N)C(=O)O

Assays:
[1] = system: T1, Pseudomonas aeruginosa ATCC BAA 3107; experiment: microbe, parasite or virus in culture; parameters: CLSI broth microdilution MIC; OD600 < 0.05 counted as complete growth inhibition; details: Pseudomonas aeruginosa, BAA3107, 18 h; read-out: MIC of ancestor
T1 construct: ATCC BAA-3107
Procedure: A final concentration of 5 × 10^5 bacterial cells per mL were inoculated into each well containing 60 µL MHB medium. Bacterial cultures were incubated at 37 °C with continuous shaking (Infors shaker, 900 rpm with 3 mm throw) for 18 hours (2 replicates from each). Cell growth was monitored by measuring the optical density (OD600 values, using Biotek Synergy microplate reader). MIC was defined as the antibiotic concentration of complete growth inhibition (i.e., OD600 < 0.05). Relative MIC was calculated as follows:1 relativeMIC=MICevolved/MICancestor This study focused on multiple bacterial strains, as follows. For the FoR and ALE experiments, 2 strains per species were chosen: E. coli ATCC 25922, K. pneumoniae ATCC 10031, A. baumannii ATCC 17978, and P. aeruginosa ATCC BAA-3107 as sensitive (SEN) strains, and E. coli NCTC13846, K. pneumoniae ATCC 700603, A. baumannii ATCC BAA-1605 and P. aeruginosa LESB58 as multi-drug resistant (MDR) strains. Functional metagenomic screens were performed with E. coli ATCC 25922 and K. pneumoniae ATCC 10031 strains. To determine the dose-kill properties of the different antibiotics, an E. coli strain (ATCC 25922) expressing a yellow fluorescent protein (pZS2R, YFP, CHL^R) and a red fluorescent protein (pZS2R, mCherry, CHL^R) was used.

[2] = system: polymyxin B-resistant lines of K. pneumoniae (KP-SEN); experiment: Cross-resistance of polymyxin B resistant evolved lines, relative MIC; type: cell-based, Klebsiella pneumoniae
Source text: (§1) To further investigate potential overlaps in resistance mechanisms, we examined the extent of cross-resistance between polymyxin B and other antibiotics that target the bacterial membrane.
(§2) Fig. 7 Cross-resistance of polymyxin B resistant lines to ST and DT permeabilizer antibiotics. […] 3 independently evolved lines from each investigated species were studied, including E. coli (EC), K. pneumoniae (KP), A. baumannii (AB), and P. aeruginosa (PA). Gray color of the main heatmap indicates combinations not tested due to intrinsic resistance of ancestor strain. The additional heatmap to the right depicts genes mutated in each polymyxin B-adapted line and their involvement in specific cellular processes based on KEGG (Kyoto Encyclopedia of Genes and Genomes) and COG (Clusters of Orthologous Genes) databases. The distances between antibiotics were computed using the Euclidean distance method based on the log-transformed MIC values. The clustering was performed using the complete linkage method. […] For detailed information on antibiotic and bacterial strain abbreviations, see Supplementary Data 1. Source data are provided as a Source Data file.
(§3) A robotic liquid handling system was used to automatically prepare a 11 to 16-step serial dilution in 384-well microtiter plates (Greiner). A final concentration of 5 × 10^5 bacterial cells per mL were inoculated into each well containing 60 µL MHB medium. Bacterial cultures were incubated at 37 °C with continuous shaking (Infors shaker, 900 rpm with 3 mm throw) for 18 hours (2 replicates from each). Cell growth was monitored by measuring the optical density (OD600 values, using Biotek Synergy microplate reader). MIC was defined as the antibiotic concentration of complete growth inhibition (i.e., OD600 < 0.05). Relative MIC was calculated as follows:1 relativeMIC=MICevolved/MICancestor […]
(§4) Supplementary Figure 6. Susceptibility of Polymyxin B resistant lines to other ST and DT […]
(§5) dividing the MIC of the evolved line by that of the corresponding ancestor) of 12 polymyxin B resistant lines to ST and DT permeabilizer antibiotics used in this study. Each data point represents a distinct adaptive laboratory evolved polymyxin B resistant line. Boxplots show the median, first and third quartiles, with whiskers showing the 5th and 95th percentiles. P values were calculated using Dunn's post-hoc test with Benjamini-Hochberg correction (NS indicates p > 0.05, ** / **** indicates p < 0.01 / 0.0001, respectively). The resistance level of polymyxin B resistant lines to polymyxin B (PMB), […]
(§6) For detailed information on antibiotic and bacterial strain abbreviations, see Supplementary Table 1. Source data are provided as a Source […]
(§7) (1 picture or pasted object on this page, not shown here)

[3] = system: polymyxin B-resistant lines of A. baumannii (AB-SEN); experiment: as above; type: cell-based, Acinetobacter baumannii
Source text: as §1, §2, §3, §4, §5, §6, §7

[4] = system: polymyxin B-resistant lines of P. aeruginosa (PA-SEN); experiment: as above; type: cell-based, Pseudomonas aeruginosa
Source text: as §1, §2, §3, §4, §5, §6, §7

[5] = system: E. coli ATCC 25922 (SEN) and E. coli NCTC13846 (MDR); parameters: method as in PMID 39805953; details: cited from earlier work
[6] = system: K. pneumoniae ATCC 10031 (SEN) and K. pneumoniae ATCC 700603 (MDR); parameters: method as in PMID 39805953; details: K. pneumoniae sensitive strain; cited from earlier work
[7] = system: P. aeruginosa ATCC BAA-3107 (SEN) and P. aeruginosa LESB58 (MDR); details: cited from earlier work
Source text: page 10: Mobile resistance genes against DT permeabilizer were rare in human-associated microbiomes and clinically relevant pathogens, while they were abundant against ST permeabilizers.

[8] = system: A. baumannii ATCC 17978 (SEN) and A. baumannii ATCC BAA-1605 (MDR); details: after 60 days of evolution; cited from earlier work
Source text: (§8) Using the same set of bacterial strains, we initiated adaptive laboratory evolution with the aim to maximize the level of antibiotic resistance in the populations achieved during a longer, but fixed time period. As expected, resistance levels were generally much higher than those observed in FoR assay. […] For instance, after 60 days of evolution, resistance levels increased by a maximum of fourfold in A. baumannii and in the E. coli sensitive strain e ...

[9] = system: E. coli ATCC 25922 (SEN) and E. coli NCTC13846 (MDR); details: E. coli sensitive strain, after 60 days of evolution; cited from earlier work
Source text: as §8

[10] = KP-SEN, polymyxin B-resistant evolved line 1, MIC evolved/MIC ancestor
[11] = KP-SEN, polymyxin B-resistant evolved line 3, MIC evolved/MIC ancestor
[12] = KP-SEN, polymyxin B-resistant evolved line 7, MIC evolved/MIC ancestor
[13] = polymyxin B-resistant evolved line 1 of KP-SEN, MIC relative to ancestor
[14] = polymyxin B-resistant evolved line 3 of KP-SEN, MIC relative to ancestor
[15] = polymyxin B-resistant evolved line 7 of KP-SEN, MIC relative to ancestor
[16] = AB-SEN, polymyxin B-resistant evolved line 2, MIC evolved/MIC ancestor
[17] = AB-SEN, polymyxin B-resistant evolved line 6, MIC evolved/MIC ancestor
[18] = AB-SEN, polymyxin B-resistant evolved line 9, MIC evolved/MIC ancestor
[19] = polymyxin B-resistant evolved line 2 of AB-SEN, MIC relative to ancestor
[20] = polymyxin B-resistant evolved line 6 of AB-SEN, MIC relative to ancestor
[21] = polymyxin B-resistant evolved line 9 of AB-SEN, MIC relative to ancestor
[22] = PA-SEN, polymyxin B-resistant evolved line 1, MIC evolved/MIC ancestor
[23] = PA-SEN, polymyxin B-resistant evolved line 5, MIC evolved/MIC ancestor
[24] = PA-SEN, polymyxin B-resistant evolved line 7, MIC evolved/MIC ancestor
[25] = polymyxin B-resistant evolved line 1 of PA-SEN, MIC relative to ancestor
[26] = polymyxin B-resistant evolved line 5 of PA-SEN, MIC relative to ancestor
[27] = polymyxin B-resistant evolved line 7 of PA-SEN, MIC relative to ancestor

| Compound | Relative MIC [2, 10] | Relative MIC [2, 11] | Relative MIC [2, 12] | Relative MIC [2, 13] | Relative MIC [2, 14] | Relative MIC [2, 15] | Relative MIC [3, 16] | Relative MIC [3, 17] | Relative MIC [3, 18] | Relative MIC [3, 19] | Relative MIC [3, 20] | Relative MIC [3, 21] | Relative MIC [4, 22] | Relative MIC [4, 23] | Relative MIC [4, 24] | Relative MIC [4, 25] | Relative MIC [4, 26] | Relative MIC [4, 27] | resistance level (relative MIC) after FoR assay [6] | increase in resistance level after adaptive laboratory evolution [7] [fold] | further results |
| --- | --- | --- | --- | --- | --- | --- | --- | --- | --- | --- | --- | --- | --- | --- | --- | --- | --- | --- | --- | --- | --- |
| Nc1nc(-n2cc(C(=O)O)c(=O)c3cc(F)c(N4CC(O)C4)c(Cl)c32)c(F)cc1F [Delafloxacin] | – | – | – | – | – | – | – | – | – | – | – | – | – | – | – | – | – | – | – | – | MIC [1]: 0.0156 µg/mL |
| CC[C@H](C)CCCCC(=O)N[C@@H](CCN)C(=O)N[C@H](C(=O)N[C@@H](CCN)C(=O)N[C@H]1CCNC(=O)[C@H]([C@@H](C)O)NC(=O)[C@H](CCN)NC(=O)[C@H](CCN)NC(=O)[C@H](CC(C)C)NC(=O)[C@@H](Cc2ccccc2)NC(=O)[C@H](CCN)NC1=O)[C@@H](C)O [Polymyxin B] (X2-[Dab]T[Dab][Dab][Dab][dF]L[Dab][Dab]T; lactam 4-C (inferred); N-terminus assumed) | 32 | 64 | 64 | 32 | 64 | 64 | 64 | 1024 | 64 | 64 | 1024 | 64 | 32 | 32 | 8 | 32 | 32 | 8 | no resistant mutants emerged | 32 | resistance level (relative MIC) after FoR assay ([5]; multidrug-resistant E. coli strain): no resistant mutants emerged |
| CC(C)c1ccc(Cn2ccc3c4c(N)nc(NC5CC5)nc4ccc32)cc1 [SCH79797] | 1 | 1 | 1 | 1 | 1 | 1 | 1 | 0.5 | 1 | 1 | 0.5 | 1 | – | – | – | – | – | – | – | – | increase in resistance level after adaptive laboratory evolution [8]: fourfold; increase in resistance level after adaptive laboratory evolution [9]: fourfold |
| CC(C)C[C@@H]1NC(=O)[C@@H](Cc2ccccc2)NC(=O)[C@H](CCN)NC(=O)[C@@H](NC(=O)[C@H](CN)NC(=O)[C@@H](NC(=O)C[C@H](CN)c2cccc(Cl)c2)[C@@H](C)O)CCNC(=O)[C@H]([C@@H](C)O)NC(=O)[C@H](CCN)NC(=O)[C@H](CCN)NC1=O [SPR206] (X1-T[Dap][Dab][Dab][dF]L[Dab][Dab]T; lactam 3-C (inferred); N-terminus assumed) | 32 | 128 | 128 | 32 | 128 | 128 | 128 | 2048 | 128 | 128 | 2048 | 128 | 64 | 64 | 32 | 64 | 64 | 32 | more than 128 fold | 32 | resistance level (relative MIC) after FoR assay ([5]; E. coli sensitive strain): more than 128 fold |
| POL7306 | 1 | 32 | 32 | 1 | 32 | 32 | 32 | 32 | 8 | 32 | 32 | 8 | 1 | 1 | 4 | 1 | 1 | 4 | – | – | – |
| colistin | 32 | 64 | 32 | 32 | 64 | 32 | 32 | 512 | 32 | 32 | 512 | 32 | 32 | 32 | 16 | 32 | 32 | 16 | – | – | – |
